As usually defined, the EC50 is the midpoint of the concentration-response curve. Low values mean higher potency in that assay, high ones lower potency in that assay. One may read the Emax as the size of the effect at its maximum, as opposed to the concentration needed. One may read the IC50 as the point on the concentration scale where inhibition reaches its midpoint. Low readings indicate greater potency in that assay, high ones weaker potency in that assay. In general, inhibition refers to how much of the control response was suppressed.

Assay [1] relates to TNF-α release from human peripheral blood mononuclear cells. In words: TNF-α release, serum-free, hPBMC, LPS. The assay is classed as cell-based. Particulars: PBMC, 18 hours. On the procedure: TNF-α, Serumfree, hPBMC, LPS
Cultures of human PBMC isolated from buffy coats were stimulated with lipopolysaccharide to activate the monocytes and to release TNF-α. PBMC were isolated from fresh buffy coats and frozen for later use. On the assay day, cells were thawed, washed in serum free medium (RPMI1640 with 25 mM HEPES, 1% pen/strep, […] L glutamine and 0.5% human serum albumin) and living cells were counted. Test compounds were diluted in DMSO and further diluted in serum-free medium and pipetted into wells of 384 well tissue culture plates. LPS was added to the cells which shortly thereafter were added to the wells with titrated test compounds and incubated for 18 hours at 37° C. The next day, the level of TNF-α in the culture supernatant was quantitated by homogenous time-resolved fluorescence (HTRF) where FRET was measured at 665 nm and normalized to the fluorescence of europium cryptate at 620 nm. The effect (inhibition of TNF-α release) of a test compound was calculated using equation 1: […]
Fluorescence intensities, measured at 665 nm and 620 nm, were used to calculate the 665/620 ratio as an estimate of the level of secreted TNF-α. Sx denotes the 665/620 ratio associated with the test compound. So and Sc denote the 665/620 ratios associated with 0.1% DMSO and 1E-05 M compound (II), respectively.
This model describes a sigmoidal curve with an adjustable baseline, a. […]

Assay [2] deals with PDE4A4 (Homo sapiens, UniProt P27815). Briefly: biochemical.
Chain of PDE4A4 (P27815 whole entry): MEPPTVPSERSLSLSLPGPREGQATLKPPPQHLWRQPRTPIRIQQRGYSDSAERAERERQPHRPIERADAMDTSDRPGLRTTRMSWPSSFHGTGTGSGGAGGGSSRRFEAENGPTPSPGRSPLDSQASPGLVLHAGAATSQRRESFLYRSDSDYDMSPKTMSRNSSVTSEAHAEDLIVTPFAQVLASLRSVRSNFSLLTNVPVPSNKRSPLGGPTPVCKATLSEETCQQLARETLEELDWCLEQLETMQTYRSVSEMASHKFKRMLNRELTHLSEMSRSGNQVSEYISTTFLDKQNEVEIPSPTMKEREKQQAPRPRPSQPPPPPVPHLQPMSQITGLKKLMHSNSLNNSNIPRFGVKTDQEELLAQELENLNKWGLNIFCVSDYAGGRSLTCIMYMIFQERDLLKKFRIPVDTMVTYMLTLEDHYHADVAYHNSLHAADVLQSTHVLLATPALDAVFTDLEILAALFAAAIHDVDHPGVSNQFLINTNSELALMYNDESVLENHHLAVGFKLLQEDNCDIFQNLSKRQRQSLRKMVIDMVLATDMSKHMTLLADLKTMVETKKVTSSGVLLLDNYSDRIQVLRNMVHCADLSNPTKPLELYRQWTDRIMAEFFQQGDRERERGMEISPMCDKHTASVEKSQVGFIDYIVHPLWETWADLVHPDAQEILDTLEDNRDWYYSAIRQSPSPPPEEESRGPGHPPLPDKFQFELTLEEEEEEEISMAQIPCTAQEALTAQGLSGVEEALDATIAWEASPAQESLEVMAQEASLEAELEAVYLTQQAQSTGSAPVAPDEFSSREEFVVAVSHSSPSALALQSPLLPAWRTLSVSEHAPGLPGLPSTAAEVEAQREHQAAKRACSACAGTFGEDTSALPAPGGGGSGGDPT
Assay [3] has as its system TNF-α. In words: Human whole blood cytokine secretion assay (TruCulture). The assay is classed as cell-based. Particulars: read-out: % inhibition at 20 nM, TNF-α, mean of 3 experiments. How it is done:
(§1) TruCulture blood collection and incubation tubes were tested with fresh human whole blood with or without addition of 20 nM of the compound of formula (I). The best results were obtained using heparin-stabilised blood and anti-CD3/CD28 test tubes.

In assay [4] the test system is IL-2. The description is as above. It is filed as cell-based. The settings on record: read-out: % inhibition at 20 nM, IL-2, mean of 3 experiments. How it is done:
as §1

The subject of assay [5] is IL-13. The description is as above. The assay is classed as cell-based. Particulars: 20 nM. On the procedure: as §1
Assay [6] deals with IFN-γ. The description is as above. It is filed as cell-based. The settings on record: read-out: % inhibition at 20 nM, IFN-γ, mean of 3 experiments. On the procedure: as §1
In assay [7] the test system is IL-8. The description is as above. The assay is classed as cell-based. Particulars: 20 nM. How it is done: as §1
The subject of assay [8] is IL-4. The description is as above. It is filed as cell-based. The settings on record: read-out: % inhibition at 20 nM, IL-4, mean of 3 experiments. How it is done: as §1
Assay [9] deals with IL-1. The description is as above. It is filed as cell-based. Particulars: read-out: % inhibition at 20 nM, IL-1, mean of 3 experiments. On the procedure:
as §1

In assay [10] the target is PDE4B2 (Homo sapiens, UniProt Q07343). It is filed as biochemical. How it is done: (§2) Enzyme Preparations: Partially purified human recombinant phosphodiesterases (PDEs) were obtained by cloning cDNA and expressing in S. frugiperda insect cells using a baculovirus expression system. Cells are harvested from culture by centrifuging at 400×g for 5 minutes. Cell pellet is resuspended in 20 ml of RIPA Buffer (150 mM NaCl, 10 mM Tris, 0.1% NP-40, pH8.3), 4 ml/200 ml of culture, plus protease inhibitors (100 μl/10 ml) and incubated on ice for 10-20 minutes then spun at 3500×g for 10 minutes at 4° C. Supernatant is kept and the pellet thrown away.
Chain of PDE4B2 (Q07343 1-564 isoform Q07343-2): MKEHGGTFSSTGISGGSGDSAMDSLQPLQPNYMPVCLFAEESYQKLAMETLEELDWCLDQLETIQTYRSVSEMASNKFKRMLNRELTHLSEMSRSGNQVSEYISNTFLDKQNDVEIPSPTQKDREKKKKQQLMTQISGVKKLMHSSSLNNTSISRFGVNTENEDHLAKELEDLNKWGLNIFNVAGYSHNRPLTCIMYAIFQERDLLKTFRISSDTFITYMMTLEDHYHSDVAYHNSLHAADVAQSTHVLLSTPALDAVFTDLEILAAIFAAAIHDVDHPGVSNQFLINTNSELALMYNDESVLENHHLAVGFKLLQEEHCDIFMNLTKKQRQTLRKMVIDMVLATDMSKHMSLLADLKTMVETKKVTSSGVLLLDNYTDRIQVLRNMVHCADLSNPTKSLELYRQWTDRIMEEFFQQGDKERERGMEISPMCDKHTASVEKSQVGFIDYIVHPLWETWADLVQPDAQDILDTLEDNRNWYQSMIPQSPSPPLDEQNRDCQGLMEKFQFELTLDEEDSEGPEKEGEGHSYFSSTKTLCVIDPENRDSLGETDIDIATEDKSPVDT
(§3) Tritium-labelled cyclic AMP is hydrolysed to 5′-AMP o by PDE. The 5′-AMP is then further hydrolysed to adenosine by nucleotidase in snake venom. An anion-exchange resin binds all charged nucleotides and leaves [^3H]adenosine as the only labelled compound to be counted by liquid scintillation.
(§4) 50 μl of diluted PDE enzyme was incubated with 50 μl of [^3H]-cAMP (specific activity 25 Ci/mmol) and 11 μl of 50% DMSO (or compound dilution) for 20 minutes at 30° C. The enzyme was diluted in 20 mM Tris HCl pH7.4 (×2.2 final concentration) and [3H]-cAMP was diluted in 10 mM MgCl2, 40 mM Tris HCl pH 7.4 (×2.2 final concentration). Reactions were carried out in Greiner 96 deep well 1 ml master-block. The plates were centrifuged for 9 seconds before the 20 minutes incubation. […] After incubation 200 μl Dowex resin (1×8, 200-400 mesh) was added and the plate shaken for 20 minutes then centrifuged for 3 minutes at 1000×g. 50 μl of supernatant was removed and added to 200 μl of MicroScint-20 in white plates (Greiner 96well Optiplate) and shaken for 30 minutes before reading on Perkin Elmer TopCount Scintillation Counter. IC50 values were calculated using GraphPad Prism software (version 8).

Assay [11] addresses PDE4D3 (Homo sapiens, UniProt Q08499). The assay is classed as biochemical. On the procedure: as §2, §3, §4
Assay [12] addresses PDE4C2 (Homo sapiens, UniProt Q08493). It is filed as biochemical. How it is done:
as §2, §3, §4

Assay [13] addresses PDE4D5 (Homo sapiens, UniProt Q08499). The assay is classed as biochemical. How it is done:
as §2, §3, §4

The target of assay [14] is PDE4B1 (Homo sapiens, UniProt Q07343). It is filed as biochemical. On the procedure: as §2, §3, §4
Chain of PDE4B1 (Q07343 whole entry): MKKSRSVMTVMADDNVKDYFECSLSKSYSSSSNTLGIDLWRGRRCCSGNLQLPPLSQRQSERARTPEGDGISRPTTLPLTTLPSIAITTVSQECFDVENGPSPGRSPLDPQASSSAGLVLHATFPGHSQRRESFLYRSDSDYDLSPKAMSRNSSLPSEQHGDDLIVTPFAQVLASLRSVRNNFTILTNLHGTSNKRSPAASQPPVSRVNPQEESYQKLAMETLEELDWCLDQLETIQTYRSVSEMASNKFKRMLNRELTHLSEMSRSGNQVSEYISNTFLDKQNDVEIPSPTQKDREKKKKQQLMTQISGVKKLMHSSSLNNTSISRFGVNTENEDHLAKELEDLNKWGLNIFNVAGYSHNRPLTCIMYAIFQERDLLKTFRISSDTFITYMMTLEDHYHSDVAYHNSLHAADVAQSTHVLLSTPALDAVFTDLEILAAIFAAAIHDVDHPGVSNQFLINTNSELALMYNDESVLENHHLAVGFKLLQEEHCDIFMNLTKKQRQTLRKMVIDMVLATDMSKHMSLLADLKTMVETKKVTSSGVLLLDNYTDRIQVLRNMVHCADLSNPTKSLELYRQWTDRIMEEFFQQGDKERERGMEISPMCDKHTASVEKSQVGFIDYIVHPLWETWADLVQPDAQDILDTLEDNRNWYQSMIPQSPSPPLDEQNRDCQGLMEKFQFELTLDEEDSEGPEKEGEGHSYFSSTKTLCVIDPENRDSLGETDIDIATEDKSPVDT
Assay [15] concerns the target PDE4D2 (Homo sapiens, UniProt Q08499). It is filed as biochemical. On the procedure:
as §2, §3, §4

Assay [16] deals with PDE4D1 (Homo sapiens, UniProt Q08499). It is filed as biochemical. On the procedure:
as §2, §3, §4

Assay [17] has as its target PDE4D4 (Homo sapiens, UniProt Q08499). The assay is classed as biochemical. On the procedure:
as §2, §3, §4

For assay [18], the target named is PDE4B3 (Homo sapiens, UniProt Q07343). The assay is classed as biochemical. On the procedure: as §2, §3, §4
Chain of PDE4B3 (Q07343 1-721 isoform Q07343-3): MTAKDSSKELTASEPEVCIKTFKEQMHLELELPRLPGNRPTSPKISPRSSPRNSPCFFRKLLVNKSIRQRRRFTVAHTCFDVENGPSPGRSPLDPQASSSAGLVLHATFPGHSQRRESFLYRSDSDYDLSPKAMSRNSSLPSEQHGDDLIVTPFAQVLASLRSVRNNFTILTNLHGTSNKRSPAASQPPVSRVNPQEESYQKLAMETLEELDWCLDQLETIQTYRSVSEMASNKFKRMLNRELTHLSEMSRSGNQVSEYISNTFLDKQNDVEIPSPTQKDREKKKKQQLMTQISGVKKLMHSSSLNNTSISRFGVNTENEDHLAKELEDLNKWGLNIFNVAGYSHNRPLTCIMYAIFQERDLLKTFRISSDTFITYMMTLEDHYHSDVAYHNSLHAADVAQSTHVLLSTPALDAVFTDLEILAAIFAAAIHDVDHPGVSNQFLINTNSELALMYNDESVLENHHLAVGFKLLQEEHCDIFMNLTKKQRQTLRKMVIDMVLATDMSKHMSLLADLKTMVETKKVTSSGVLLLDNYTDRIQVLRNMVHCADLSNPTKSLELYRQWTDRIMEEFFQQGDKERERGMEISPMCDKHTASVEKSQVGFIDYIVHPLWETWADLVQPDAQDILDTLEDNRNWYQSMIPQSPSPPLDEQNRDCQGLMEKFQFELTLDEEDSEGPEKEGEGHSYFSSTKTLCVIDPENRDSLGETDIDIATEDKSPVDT
Assay [19] addresses PDE4D7 (Homo sapiens, UniProt Q08499). It is filed as biochemical. How it is done: as §2, §3, §4

SMILES strings stand for the structures.

Chain of PDE4D2 (Q08499 303-809): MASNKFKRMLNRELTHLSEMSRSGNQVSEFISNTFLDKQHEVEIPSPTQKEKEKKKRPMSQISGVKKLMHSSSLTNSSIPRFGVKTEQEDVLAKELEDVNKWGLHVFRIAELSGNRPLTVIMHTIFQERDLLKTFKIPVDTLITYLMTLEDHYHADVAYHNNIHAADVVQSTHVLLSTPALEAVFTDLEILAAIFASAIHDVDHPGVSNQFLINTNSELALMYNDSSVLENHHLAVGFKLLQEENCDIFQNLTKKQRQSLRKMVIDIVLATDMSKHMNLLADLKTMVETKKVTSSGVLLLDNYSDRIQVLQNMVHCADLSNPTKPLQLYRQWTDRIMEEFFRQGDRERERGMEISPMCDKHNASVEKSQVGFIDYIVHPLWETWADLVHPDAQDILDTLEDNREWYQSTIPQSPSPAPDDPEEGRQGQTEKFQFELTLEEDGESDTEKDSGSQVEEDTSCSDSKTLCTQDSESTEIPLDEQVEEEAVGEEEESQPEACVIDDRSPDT
Chain of PDE4D3 (Q08499 1-673 isoform Q08499-2): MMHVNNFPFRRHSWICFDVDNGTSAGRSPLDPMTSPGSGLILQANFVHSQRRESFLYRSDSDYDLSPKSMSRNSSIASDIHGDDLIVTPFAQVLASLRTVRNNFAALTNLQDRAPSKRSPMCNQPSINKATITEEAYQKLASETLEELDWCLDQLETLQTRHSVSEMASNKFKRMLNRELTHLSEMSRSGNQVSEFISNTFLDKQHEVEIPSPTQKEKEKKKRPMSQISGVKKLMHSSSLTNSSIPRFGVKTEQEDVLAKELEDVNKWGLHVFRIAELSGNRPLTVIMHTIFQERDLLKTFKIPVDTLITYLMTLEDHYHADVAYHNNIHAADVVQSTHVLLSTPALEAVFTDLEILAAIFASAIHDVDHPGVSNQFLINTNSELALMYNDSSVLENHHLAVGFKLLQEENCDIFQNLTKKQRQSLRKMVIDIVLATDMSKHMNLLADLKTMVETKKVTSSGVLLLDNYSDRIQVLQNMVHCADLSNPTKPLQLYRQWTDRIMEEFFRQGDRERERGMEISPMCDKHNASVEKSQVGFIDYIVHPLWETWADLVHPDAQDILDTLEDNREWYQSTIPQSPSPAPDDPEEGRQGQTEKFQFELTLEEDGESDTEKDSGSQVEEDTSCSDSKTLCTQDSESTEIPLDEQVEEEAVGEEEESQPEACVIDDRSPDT
Chain of PDE4D1 (Q08499 1-584 isoform Q08499-4): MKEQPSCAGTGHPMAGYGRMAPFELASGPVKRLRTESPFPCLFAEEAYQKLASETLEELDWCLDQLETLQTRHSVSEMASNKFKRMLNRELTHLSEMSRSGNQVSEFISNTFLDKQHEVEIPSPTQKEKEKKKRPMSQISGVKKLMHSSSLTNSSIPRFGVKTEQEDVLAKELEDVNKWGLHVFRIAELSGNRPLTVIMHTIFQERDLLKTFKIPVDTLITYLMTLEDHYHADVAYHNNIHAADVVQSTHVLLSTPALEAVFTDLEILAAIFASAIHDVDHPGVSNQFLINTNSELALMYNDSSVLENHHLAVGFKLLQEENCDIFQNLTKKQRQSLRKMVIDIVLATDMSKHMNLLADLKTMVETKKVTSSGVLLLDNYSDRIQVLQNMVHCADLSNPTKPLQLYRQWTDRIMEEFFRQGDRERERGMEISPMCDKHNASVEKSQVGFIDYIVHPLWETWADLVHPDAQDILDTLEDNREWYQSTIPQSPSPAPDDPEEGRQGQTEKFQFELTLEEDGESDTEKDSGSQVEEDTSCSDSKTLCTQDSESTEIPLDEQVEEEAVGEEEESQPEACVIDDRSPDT

In [1], `O=C(Cc1c(Cl)c[n+]([O-])cc1Cl)c1ccc(OC(F)F)c2c1OC1(CCS(=O)(=O)CC1)O2` [Compound (I), 2-(3,5-Dichloro-1-oxido-pyridine-4-yl)-1-(7-difluoro-methoxy-2′,3′,5′,6′-tetrahydro-spiro[1,3-benzodioxole-2,4′-(4H)-thiopyran-1′,1′-dioxide]-4-yl)ethanone] returned an EC50 of 11.4 nM. The same compound gave an Emax in assay [1] of 102%. Besides, the 50% inhibitory concentration (IC50) in [2] came out at 11 nM; in [10], 6 nM; in [11], 8 nM; in assay [12] it was 104 nM; in assay [13], 3 nM; in [14], 16 nM. Besides, the half-maximal inhibitory concentration (IC50) was found to be 9 nM in [15]; 9 nM in assay [16]; 8 nM in assay [17]; 3 nM in assay [18]; 3 nM in assay [19]. Further, the inhibition at 0.02 µM was found to be 60% in assay [3]; 50% in assay [4]; 54% in [6]; 44% in [8]; 40% in assay [9]. In addition, in assay [5], the “Inhibition of IL-13 secretion (in words)” value is “not clearly inhibited”. For the same compound, the “Inhibition of IL-8 secretion (in words)” value in assay [7] is “not clearly inhibited”.

The record behind these values is US20250268876A1, “TREATMENT OF HIDRADENITIS SUPPURATIVA WITH ORISMILAST” (UNION THERAPEUTICS A/S, priority 2021, published 2025).
